Assay results taken from patent US20040242676A1, “Method of mitigating the adverse effects of IL-2” (priority 2003, published 2004).
Like-named read-outs stand apart in the source and are kept apart here.

Assays:
rats and guinea pig = assay: Inhibition of acetic acid colonic inflammation in rats and guinea pig; type: in vivo; conditions: po; i.g.
From the text: (§1) A series of tests were run to determine the in vitro and in vivo pharmacology properties of the HMP LBA of this invention. A summary of the results of these tests appear below.
Inhibition of acetic acid colonic inflammation in rats and guinea pig

[1] = test system: human neutrophil adhesion to LTB4-stimulated umbilical vein endothelial cells; assay: Inhibition of human neutrophil adhesion to LTB4-stimulated umbilical vein endothelial cells; type: cell-based
From the text: as §1
Inhibition of human neutrophil adhesion to LTB4-stimulated umbilical vein endothelial cells

guinea pigs [2] = assay: Inhibition of LTB4 chemotaxis in guinea pigs; type: in vivo, guinea pig; conditions: Cavia porcellus, po; i.g.
From the text: as §1
Inhibition of LTB4 chemotaxis in guinea pigs

[3] = test system: LTB4-induced neutrophil granulation; assay: Inhibition of LTB4-induced neutrophil granulation; type: cell-based
From the text: as §1
Inhibition of LTB4-induced neutrophil granulation

guinea pig ear = assay: Inhibition of calcium ionophore dermal inflammation in the guinea pig ear; conditions: in vivo
From the text: as §1
Inhibition of calcium ionophore dermal inflammation in the guinea pig ear

LTB4 chemotaxis = assay: Inhibition of LTB4 chemotaxis; type: cell-based
From the text: as §1
Inhibition of LTB4 chemotaxis

[4] = test system: LTA4 conversion into LTB4; assay: Inhibition of LTA4 conversion into LTB4; type: biochemical
From the text: as §1
Inhibition of LTA4 conversion into LTB4

Human subjects = assay: Effect of LMP LBA and HMP LBA on hepatotoxicity in humans (alanine aminotransferase); type: in vivo
Experimental: Human subjects between the ages of 18 and 70 received every 8 hours single capsules containing either the LMP LBA or the HMP LBA form. The drug is prepared as a fine powder and then mixed as drug/excipients at 20/80 wt %/wt % where excipients consist of equal weights of lactose and hydroxypropyl methylcellulose. The intention of dosing was to examine the effect of increasing doses of each LBA on safety and tolerability. Standard laboratory parameters were measured, including complete blood count, chemistry panel 20, urinary analysis, and electrocardiogram (ECG). Measurements of the laboratory tests were made daily except for the ECG which was measured at baseline, 1 week, and 1 week after cessation of dosing. There were no differences in the safety profiles with the exception of liver function testing.
Because the liver plays a central role in the metabolism of drugs, the effect a drug has on liver function is an important effect to consider. An indicator of an adverse effect that a drug may have on the liver is the peak change from baseline of alanine aminotransferase (ALT). […] A significant increase of ALT is generally an increase of more than 2.

[5] = Pharmacokinetics of suspension and solution in the rat; type: in vivo; conditions: gavage, 100 mg/kg; for AUC: trapezoidal rule
Experimental: Adult male Munich-Wistar rats (250 g, Charles River Laboratories) received by gavage a suspension of either HMP or LMP LBA in polyethylene glycol 400 at 100 mg/kg or 100 mg/kg of an equal mass of the HMP and LMP forms in solution at pH 7.5. Non-compartmental pharmacokinetics were determined and appear below in Table 3.

[6] = Dissolution of LMP and HMP forms as a function of pH; type: physicochemical; conditions: for AUC of dissolution over the range of pH: pH 1.2 to 7.5; for Dissolution (%): 10 mg in 100 mL water, 37° C., 15 mins
Experimental: The LMP and HMP forms of the LBA of formula (I) were prepared in accordance with a process described in Examples 1 and 2, respectively. The pH of each of multiple 100 mL aliquots of distilled water was adjusted within the range of 1.2 to 7.5. Ten mg of either the LMP or HMP forms, finely ground with mortar and pestle, were placed into separate aliquots and then stirred at 37° C. for 15 mins. The dissolution characteristic of the LMP and HMP forms was measured at each pH and expressed as a percentage of the whole. Areas-under-the curve (AUCS) were calculated over the range of pH values tested. [Since the ordinate values are expressed as % dissolution and the abscissa values are expressed as pH units, then the units of AUC is expressed as the product of % dissolution times pH units or, alternatively, “%·log[[…]]” Results appear below in Table 2.

guinea pigs [7] = assay: Inhibition of 12 (R)-HETE in guinea pigs; type: in vivo, guinea pig; conditions: Cavia porcellus, po; i.g.
From the text: as §1
Inhibition of 12 (R)—HETE in guinea pigs

[8] = test system: patients with metastatic renal carcinoma; conditions: for number of doses of IL-2 that could be tolerated, as related to the dose of the LBA: FIG. 2, p<0.05; for number of doses of IL-2 that could be tolerated, as related to the plasma level of the LBA: FIG. 3, p<0.03
Experimental: PROLEUKIN® IL-2 is administered to the patient in accordance with the labeling instructions (in brief, 600,000 IU/kg every 8 hours as tolerated). […] Therefore, 16 doses of the LA compound would be given during this same five-day period. […] These two courses constitute one cycle of IL-2.
Accordingly, the number of doses of IL-2 that can be given constitutes the single best measure of the tolerability of IL-2. The response rate, as measured by tumor shrinkage or disappearance, is the measure of antitumor activity.
The scheduled dosing regimen of IL-2 was 3× daily for a total of 14 doses over 5 days, followed by 9 days without IL-2, and then a repeat of the initial 14 doses over 5 days. The dose of IL-2 was 600,000 IU/kg administered intravenously every 8 hours.

LTB4 synthesis = assay: Inhibition of LTB4 synthesis; type: biochemical
From the text: as §1
Inhibition of LTB4 synthesis

CCCc1c(OCCCOc2ccc(C(C)=O)c(OC)c2CCC)ccc2c1OC(C(=O)O)CC2 (racemic) [HMP LBA, (±) 7-[3-(4-acetyl-3-methoxy-2-propylphenoxy)propoxy]-3,4-dihydro-8-propyl-2H-1-benzopyran-2-carboxylic acid]
ED50 (rats and guinea pig): 20 mg/kg | Inhibition of human neutrophil adhesion to LTB4-stimulated umbilical vein endothelial cells, range [1]: 0.3 to 1.0 µM | ED50 (guinea pigs [2]): 0.6 mg/kg | Inhibition of LTB4-induced neutrophil granulation, range [3]: 1 to 3 µM | ED50, inhibition of calcium ionophore dermal inflammation in the guinea pig ear (guinea pig ear): 0.7 mg/ear | Inhibition of LTB4 chemotaxis, range (LTB4 chemotaxis): 0.3 to 3.0 µM | IC50 [4]: 20 µM | Peak Change from Baseline Alanine Aminotransferase (multiple) (Human subjects; daily dose 75 mg, cumulative 375 mg over 5 days): 1 multiple | Peak Change from Baseline Alanine Aminotransferase (multiple) (Human subjects; daily dose 100 mg, cumulative 500 mg over 5 days): 1 multiple | Peak Change from Baseline Alanine Aminotransferase (multiple) (Human subjects; daily dose 125 mg, cumulative 625 mg over 5 days): 2 multiple | Peak Change from Baseline Alanine Aminotransferase (multiple) (Human subjects; daily dose 150 mg, cumulative 750 mg over 5 days, listed as HMP): 2 multiple | Peak Change from Baseline Alanine Aminotransferase (multiple) (Human subjects; daily dose 175 mg, cumulative 875 mg over 5 days): 2 multiple | Peak Change from Baseline Alanine Aminotransferase (multiple) (Human subjects; daily dose 200 mg, cumulative 1000 mg over 5 days): 1 multiple | Peak Change from Baseline Alanine Aminotransferase (multiple) (Human subjects; daily dose 225 mg, cumulative 1125 mg over 5 days): 0 multiple | Peak Change from Baseline Alanine Aminotransferase (multiple) (Human subjects; daily dose 300 mg, cumulative 1500 mg over 5 days): −.5 multiple | Peak Change from Baseline Alanine Aminotransferase (multiple) (Human subjects; daily dose 450 mg, cumulative 2250 mg over 5 days): 0 multiple | Peak Change from Baseline Alanine Aminotransferase (multiple) (Human subjects; daily dose 600 mg, cumulative 3000 mg over 5 days): 2 multiple | Peak Change from Baseline Alanine Aminotransferase (multiple) (Human subjects; daily dose 750 mg, cumulative 3750 mg over 5 days): 1 multiple | Peak Change from Baseline Alanine Aminotransferase (multiple) (Human subjects; daily dose 900 mg, cumulative 4500 mg over 5 days): 1 multiple | doses administered without excessive hepatotoxicity (Human subjects; humans, 4500 mg over five days): up to 900 mg/day | tolerability (Human subjects; intermittent dosing: 5 days, 9 days without exposure, 5 days, total exposure 9000 mg): improved even further | Cmax ([5]; listed as HMP): 13000 ng/mL | Tmax ([5]; listed as HMP): 2.0 h | AUC ([5]; listed as HMP): 65000 ng·h/mL | AUC of dissolution over the range of pH ([6]; listed as HMP): 163 %·pH units | Dissolution (%) ([6]; pH 5.0, listed as HMP): 6% | Dissolution (%) ([6]; pH 5.5, listed as HMP): 18% | Dissolution (%) ([6]; pH 6.0, listed as HMP): 29% | Dissolution (%) ([6]; pH 6.5, listed as HMP): 50% | Dissolution (%) ([6]; pH 7.0, listed as HMP): 81% | ED50 (guinea pigs [7]): 20 mg/kg | number of doses of IL-2 that could be tolerated, as related to the dose of the LBA ([8]; FIG. 4): rose | number of doses of IL-2 that could be tolerated, as related to the dose of the LBA ([8]; FIG. 4, listed as LBA): increases | number of doses of IL-2 that could be tolerated, as related to the plasma level of the LBA [8]: rose | number of doses of IL-2 that could be tolerated, as related to the plasma level of the LBA ([8]; listed as LBA): increases | frequency of serious IL-2 events ([8]; HMP LBA doses at or above 250 mg/day, 5/27): 19% | frequency of serious IL-2 events ([8]; HMP LBA doses of <250 mg/day, 13 events in 35 patients): 38% | frequency of IL-2 induced serious adverse clinical events as total exposure to IL-2 increased ([8]; coadministration of HMP LBA, FIG. 4): significantly declined | response rate to treatment with IL-2 under LBA treatment ([8]; human, in vivo): not diminished | tolerability ([8]; oral, 75-900 mg/day, co-administered with IL-2): well tolerated | maximal tolerated dose ([8]; oral, co-administered with IL-2, 62 subjects): > 900 mg/day | concentration in the plasma as a function of dose ([8]; p<0.02): rose linearly in a dose-proportional manner | IC50 (LTB4 synthesis): 2.1 µM

CCCc1c(OCCCOc2ccc(C(C)=O)c(OC)c2CCC)ccc2c1OC(C(=O)O)CC2 (racemic) [LMP LBA, (±)-7-[3-(4-acetyl-3-methoxy-2-propylphenoxy)-propoxy]3,4-dihydro-8-propyl-2H-1-benzopyran-2-carboxylic acid]
tolerability (hepatotoxicity) (Human subjects; 150 mg daily for up to 14 consecutive days (total target dose 2100 mg)): not well tolerated | subjects withdrawn from dosing because of adverse changes in alanine aminotransferase levels (Human subjects; 60 and 150 mg/day): 6/6 | Peak Change from Baseline Alanine Aminotransferase (multiple) (Human subjects; daily dose 60 mg, cumulative 300 mg over 5 days): 2.5 multiple | Peak Change from Baseline Alanine Aminotransferase (multiple) (Human subjects; daily dose 150 mg, cumulative 750 mg over 5 days, listed as LMP): 2.5 multiple | Tmax ([5]; listed as LMP): 0.7 h | Cmax ([5]; male, Munich-Wistar, blood, po, read-out: Cmax): 10400 ng/mL | AUC ([5]; male, Munich-Wistar, blood, po, read-out: AUC): 57000 ng·h/mL | Dissolution (%) ([6]; pH 1.2): 0% | AUC of dissolution over the range of pH ([6]; listed as LMP): 284 %·pH units | Dissolution (%) ([6]; pH 3.0): 0% | Dissolution (%) ([6]; pH 4.5): 0% | Dissolution (%) ([6]; pH 5.0, listed as LMP): 20% | Dissolution (%) ([6]; pH 5.5, listed as LMP): 48% | Dissolution (%) ([6]; pH 6.0, listed as LMP): 82% | Dissolution (%) ([6]; pH 6.5, listed as LMP): 96% | Dissolution (%) ([6]; pH 7.0, listed as LMP): 99% | Dissolution (%) ([6]; pH 7.5): 100%

des-alanyl-1, serine-125 human interleukin-2 [IL-2]
objective response rate ([8]; patients with metastatic renal cell cancer, after a single course of treatment with IL-2): 10-15%
